Marks after values point to notes of the source that are not given here.
Assays:
[1] = tested on: normochromatic erythrocytes; assay: Systemic genotoxicity: frequency of MN NCE in peripheral blood; type: in vivo, Swiss H mice; parameters: unit not given here
colon miRNAs = assay: miRNA expression (microarray), Study 3, colon; type: in vivo, ICR (CD-1) mice
Experimental: (§1) Each group was composed of 10 female mice.
(§2) The urine was collected for 8 h and pooled from the mice belonging to each experimental group in Study 3 by using metabolic cages during the day preceding euthanasia of mice. Immediately after sacrifice, a bronchoalveolar lavage (BAL) was performed and used for preparing BALF, and the blood was collected and used for preparing serum. BALF and blood serum were pooled within each experimental group. The organs reported in the general design of the studies were collected, as previously described. Immediately after collection, each organ or fluid was immersed in RNAlater and kept at -80°C for miRNA analysis. Portions of the organs used in Study 1 and Study 2 were stored at -80°C for evaluating DNA damage.
(§3) For evaluating the expression of pulmonary miRNAs we used the 7th generation miRCURY LNA™ microRNA Array (Exiqon), which contains 3,100 capture probes covering human, mouse and rat miRNAs. In particular, this array covers 1,135 mouse miRNAs, i.e. the 88.6% of the 1,281 mouse miRNAs listed in miRBase 19. Microarray analyses were carried out as previously described.
(§4) Treatment-related differences in body weights, in the frequency of MN NCE, and in the levels of pulmonary DNA adducts and 8-oxo-dGuo, all of them expressed as means ± SE within each group of mice, were evaluated for statistical significance by ANOVA followed by Student's t test for unpaired data. miRNA microarray data, after local background subtraction, log transformation, and normalization were analyzed by GeneSpring software (Agilent, Santa Clara, CA), and expression data were median centered by using the GeneSpring normalization option.

blood serum miRNAs = assay: miRNA expression (microarray), Study 3, blood serum; type: in vivo, ICR (CD-1) mice
Experimental: as §1, §2, §3, §4

stomach miRNAs = assay: miRNA expression (microarray), Study 3, stomach; type: in vivo, ICR (CD-1) mice
Experimental: as §1, §2, §3, §4

urinary bladder miRNAs = assay: miRNA expression (microarray), Study 3, urinary bladder; type: in vivo, ICR (CD-1) mice
Experimental: as §1, §2, §3, §4

Body weight, Study 3 = type: in vivo, ICR (CD-1) mice; details: in g
Source text: as §1
Strain H neonatal mice, used in Study 1, were born at the Animal Laboratory of the National Center of Oncology (Sofia, Bulgaria). The mice were housed in Makrolon™ cages on sawdust bedding and maintained on standard rodent chow (Kostinbrod, Bulgaria) and allowed drinking water ad libitum. Swiss ICR (CD-1) mice, either neonatal (Study 2) or two- month old (Study 3), were purchased from Harlan Laboratories (San Pietro al Natisone, Udine, Italy). The mice were housed in Makrolon™ cages on sawdust bedding and maintained on standard rodent chow (Teklad 9607, Harlan Laboratories) and tap water ad libitum. The animal room temperature was 23 ± 2°C, with a relative humidity of 55% and a 12 h day-night cycle. Housing and treatments of mice were in accordance with NIH, European (2010/63 UE Directive), and institutional guidelines. The issuance of the NIH Office of Laboratory Animal Welfare (OLAW) with the University of Genoa bears the identification number A5899-01 and is effective until February 28, 2021. The Institutional Animal Care and Use Committee (IACUC) protocol was approved by the Fox Chase Cancer Center Committee on April 13, 2015.
Celecoxib was supplied by the US National Cancer Institute (NCI) via MRIGlobal (Kansas City, MO).
In Study 1 and Study 2, feeding of the drug-containing diet started after weanling (about 4 weeks) and continued until the 10th week of life.
as §4

lung DNA [2] = assay: Bulky DNA adducts by 32P postlabeling, Study 2, lung; type: in vivo, ICR (CD-1) mice
Experimental: (§5) DNA was extracted from tissue specimens (50 mg) collected individually from the lungs of 40 Swiss H mice used in Study 1 and from lungs, heart and liver of 80 ICR (CD-1) mice used in Study 2, as previously described. Bulky DNA adducts, after butanol enrichment, and 8-hydroxy-2’-deoxyguanosine (8-oxo-dGuo) were measured by ^32P postlabeling as previously described.

lung miRNAs = assay: miRNA expression (microarray), Study 3, lung; type: in vivo, ICR (CD-1) mice
Experimental: as §1, §2, §3, §4

lung DNA [3] = assay: 8-oxo-dGuo (oxidative DNA damage) in lung by 32P postlabeling, Study 1; type: in vivo, Swiss H mice; details: for 8-oxo-dGuo: lung
Experimental: as §1, §5

spleen miRNAs = assay: miRNA expression (microarray), Study 3, spleen; type: in vivo, ICR (CD-1) mice
Experimental: as §1, §2, §3, §4

[4] = low dose (20 mg/kg diet) vs sham

Cc1ccc(-c2cc(C(F)(F)F)nn2-c2ccc(S(N)(=O)=O)cc2)cc1 [Celecoxib, 4-[5-(4-methylphenyl)-3-(trifluoromethyl)-1H-pyrazol-1-yl] benzene-1-sulfonamide]
frequency of MN NCE ([1]; females, 4 months of age): 0.8 ± 0.08
frequency of MN NCE ([1]; females, MCS-exposed mice given celecoxib): 1.2 ± 0.08
frequency of MN NCE ([1]; males, 4 months of age): 1.4 ± 0.12
frequency of MN NCE ([1]; males, MCS-exposed mice given celecoxib): 2.2 ± 0.15
upregulated/downregulated miRNAs (colon miRNAs; MCS-exposed mice): 0/2
miR-185-5p downregulation (colon miRNAs; MCS-free mice): 8 fold
miR-301 downregulation (colon miRNAs; MCS-free mice): 6 fold
upregulated/downregulated miRNAs (colon miRNAs; MCS-free mice): 1/4
number of miRNAs modulated by celecoxib (colon miRNAs; high dose): 7
upregulated/downregulated miRNAs (blood serum miRNAs; blood serum, MCS-exposed mice): 2/3
miR-1964-5p downregulation (blood serum miRNAs; blood serum, MCS-free mice): 8 fold
upregulated/downregulated miRNAs (blood serum miRNAs; blood serum, MCS-free mice): 2/11
number of miRNAs modulated by celecoxib (blood serum miRNAs; blood serum, high dose): 18
number of miRNAs modulated (blood serum miRNAs; blood serum, low dose): 2
miR30c-5p downregulation (blood serum miRNAs; blood serum, low dose (20 mg/kg diet) vs sham): 2.9 fold
miR-185 downregulation (blood serum miRNAs; blood serum, low dose (20 mg/kg diet), compared to MCS-exposed mice): 2.1 fold
number of miRNAs modulated (blood serum miRNAs; blood, high dose): 11
miR-125b downregulation (stomach miRNAs; MCS-exposed mice): 9 fold
miR-802-3p upregulation (stomach miRNAs; MCS-exposed mice): 3 fold
upregulated/downregulated miRNAs (stomach miRNAs; MCS-exposed mice): 3/3
miR-1964-5p downregulation (stomach miRNAs; MCS-free mice): 4 fold
upregulated/downregulated miRNAs (stomach miRNAs; MCS-free mice): 2/12
number of miRNAs modulated by celecoxib (stomach miRNAs; high dose): 20
miR-30c-2-3p downregulation (urinary bladder miRNAs; MCS-exposed mice): 7 fold
miR-30e upregulation (urinary bladder miRNAs; MCS-exposed mice): 6 fold
miR-185-5p downregulation (urinary bladder miRNAs; MCS-exposed mice): 14 fold
miR-701-3p upregulation (urinary bladder miRNAs; MCS-exposed mice): 5 fold
miR-802-3p upregulation (urinary bladder miRNAs; MCS-exposed mice): 5 fold
miR-1964-5p downregulation (urinary bladder miRNAs; MCS-exposed mice): 5 fold
upregulated/downregulated miRNAs (urinary bladder miRNAs; MCS-exposed mice): 8/12
miR-30c-2-5p downregulation (urinary bladder miRNAs; MCS-free mice): 10 fold
miR-30e downregulation (urinary bladder miRNAs; MCS-free mice): 8 fold
miR-185-5p downregulation (urinary bladder miRNAs; MCS-free mice): 20 fold
miR-301 downregulation (urinary bladder miRNAs; MCS-free mice): 8 fold
upregulated/downregulated miRNAs (urinary bladder miRNAs; MCS-free mice): 0/10
number of miRNAs modulated by celecoxib (urinary bladder miRNAs; high dose): 30
body weight (Body weight, Study 3; females, MCS-exposed, high dose celecoxib): 26.7 ± 0.56
body weight (Body weight, Study 3; females, MCS-exposed, low dose celecoxib): 30.9 ± 1.24
body weight (Body weight, Study 3; females, smoke-free, high dose (1,600 mg/kg diet)): 31.5 ± 0.98
body weight (Body weight, Study 3; females, smoke-free, low dose (20 mg/kg diet)): 32.6 ± 1.82
body weight (Body weight, Study 3; males, smoke-free, high dose (1,600 mg/kg diet)): 42.1 ± 0.61
Bulky DNA adducts (lung DNA [2]; F): 3.7 ± 0.31^c adducts/10^8 nucleotides
Bulky DNA adducts (lung DNA [2]; M): 4.4 ± 0.56^c adducts/10^8 nucleotides
Bulky DNA adducts (lung DNA [2]; M + F): 4.0 ± 0.31^c adducts/10^8 nucleotides
decrease of DNA adduct levels vs MCS-exposed mice without celecoxib (lung DNA [2]; combined genders): 1.6 fold
decrease of DNA adduct levels vs MCS-exposed mice without celecoxib (lung DNA [2]; males): 1.5 fold
decrease of DNA adduct levels vs MCS-exposed mice without celecoxib (lung DNA [2]; printed 'males' a second time): 1.7 fold
increase of DNA adduct levels over sham-exposed mice (lung DNA [2]; combined genders): 2.7 fold
increase of DNA adduct levels over sham-exposed mice (lung DNA [2]; females): 2.5 fold
increase of DNA adduct levels over sham-exposed mice (lung DNA [2]; males): 2.9 fold
autoradiographic spots formed (lung DNA [2]; smoke-free mice): 3
miR-361 upregulation (lung miRNAs): 8 fold
upregulated/downregulated miRNAs (lung miRNAs; MCS-exposed mice): 0/1
upregulated/downregulated miRNAs (lung miRNAs; MCS-free mice): 14/0
number of miRNAs modulated by celecoxib (lung miRNAs; high dose): 15
number of miRNAs modulated (lung miRNAs; low dose): 3
miR-296 upregulation (lung miRNAs; [4]): 2.4 fold
miR-551b upregulation (lung miRNAs; [4]): 2.2 fold
miR185 downregulation (lung miRNAs; low dose (20 mg/kg diet), compared to MCS-exposed mice): 2.8 fold
8-oxo-dGuo (lung DNA [3]; F): 2.3 ± 0.28 8-oxo-dGuo/10^5 nucleotides
8-oxo-dGuo (lung DNA [3]; M): 1.6 ± 0.29 8-oxo-dGuo/10^5 nucleotides
8-oxo-dGuo (lung DNA [3]; M + F): 1.9 ± 0.22 8-oxo-dGuo/10^5 nucleotides
increase of pulmonary 8-oxo-dGuo levels vs sham-exposed mice (lung DNA [3]; mouse, in vivo): did not affect
upregulated/downregulated miRNAs (spleen miRNAs; MCS-exposed mice): 1/7
miR-30c-2-5p downregulation (spleen miRNAs; MCS-free mice): 7 fold
upregulated/downregulated miRNAs (spleen miRNAs; MCS-free mice): 2/7
number of miRNAs modulated by celecoxib (spleen miRNAs; high dose): 17
